According to PMC8231969, “Characterization of Two NMN Deamidase Mutants as Possible Probes for an NMN Biosensor” (International Journal of Molecular Sciences, 2021):
Like-named read-outs stand apart in the source and are kept apart here.

Legend:
WT PncC (NMN deamidase) = tested on: T1, WT PncC (NMN deamidase); assay: Fluorescence-based thermal shift binding assay, wild-type PncC; set-up: species or system E. coli; conditions: 1 mM NMN
T1 construct: made in house; host or cells: E. coli BL21(DE3)
Procedure: (§1) Protein melting temperature (Tm) was determined by fluorescence-based thermal shift assay using fluoroprobe SYPRO Orange dye (Invitrogen, Waltham, MA, USA). The assay was performed in a RotorGene 3000 real-time PCR (Corbett, Biocompare, San Francisco, CA, USA). The assay mixture contained 50 mM Hepes/NaOH, pH 7.5, 300 mM NaCl, 1 mM TCEP, 1 μM protein, Sypro orange at 10-fold dilution from a 5000-fold stock, and the various ligands at the tested concentrations, in a final volume of 25 μL. The mixtures were pre-heated at 40 °C for 5 s, then heated to 50 °C in 1 s, and finally heated from 50 to 99 °C with a heating-up rate of 0.5 °C every 5 s. The fluorescence intensity was measured with Ex/Em: 470/585 nm. The melting temperature was determined by taking the maximum point of the slope-derivative peak. Kd values were determined by plotting the percentage of unfolded proteins as a function of nucleotide concentration at a fixed temperature, after normalization of the unfolding curves. Fitting of the data was performed using the equations reported in [34]. Three independent experiments were carried out and values were reported as the means ± standard deviation.

S29A PncC [1] = molecular target: T2, S29A PncC (Escherichia coli, UniProt P0A6G3, S29A); assay: biochemical; format: binding, E. coli
T2 construct: made in house; host or cells: E. coli BL21(DE3)

Y56A PncC = tested on: T3, Y56A PncC; assay: Fluorescence-based thermal shift binding assay, Y56A PncC; set-up: species or system E. coli
T3 construct: made in house; host or cells: E. coli BL21(DE3)
Procedure: as §1

K61Q PncC [2] = molecular target: T4, K61Q PncC (Escherichia coli, UniProt P0A6G3, K61Q); assay: biochemical; format: binding, E. coli
T4 construct: made in house; host or cells: E. coli BL21(DE3)

R142A PncC = tested on: T5, R142A PncC; assay: Fluorescence-based thermal shift binding assay, R142A PncC; set-up: species or system E. coli
T5 construct: made in house; host or cells: E. coli BL21(DE3)
Procedure: as §1

S29A PncC [3] = molecular target: T2, S29A PncC; format: binding, E. coli
Description: (§2) Experimental data were processed using the OriginPro 8.0 (OriginLab Corporation, Northampton, MA, USA). A non-linear curve analysis (Hill1 plot) was used for plotting the F0/F values in function of the metabolite concentration, to obtain the Kd value.

K61Q PncC [4] = molecular target: T4, K61Q PncC; format: binding, E. coli
Procedure: as §2
Percentage of the K61Q protein that would exist in complex with NMN in a cellular setting was calculated based on the Kd value, by using the equation: %=100/1+Kd/[NMN]

[5] = tested on: glutamine binding protein (GlnBP); conditions: GlnBP 3 µM, 96 µM nucleotide
Procedure: Steady-state measurements were performed using an ISS_K2 fluorometer (ISS, Urbana-Champaign, IL, USA), equipped with a one-cell temperature-controlled sample holder. […] Excitation and emission slit widths were fixed at 0.5 and 1.0 nm, respectively. […] The nucleotides were added to reach the indicated final concentration (from 0.18 to 96 µM) with an incubation interval of 10 min. Triplicate readings were done for each experimental point. Experiments were repeated three times (for NMN and NaMN) or twice (for all the other metabolites). Controls experiments were performed using the E. coli Glutamine Binding Protein (GlnBP, 3µM), with increasing concentration of NMN or NaMN, at the same conditions.
Percentages of reduction of fluorescence intensities compared to buffer, were calculated as follow: (normalized fluorescence in presence of analyte at a given [µM]/normalized fluorescence in presence of corresponding volume of buffer) × 100.

T4 sequence (P0A6G3 whole entry K61Q): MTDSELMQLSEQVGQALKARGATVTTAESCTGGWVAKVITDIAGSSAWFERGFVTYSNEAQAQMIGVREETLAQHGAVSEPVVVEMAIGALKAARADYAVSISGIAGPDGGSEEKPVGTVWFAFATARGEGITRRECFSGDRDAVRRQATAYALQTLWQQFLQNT
T2 sequence (P0A6G3 whole entry S29A): as the sequence (P0A6G3 whole entry K61Q) above, with S29A, Q61K counted along it

SMILES: NC(=O)c1ccc[n+]([C@@H]2O[C@H](COP(=O)([O-])O)[C@@H](O)[C@H]2O)c1 [NMN, nicotinamide mononucleotide]
- Tm (+NMN) (WT PncC (NMN deamidase)): 92.2 °C
- ΔTm (WT PncC (NMN deamidase)): 6.1 °C
- Tm (+NMN) (S29A PncC [1]; S29A PncC, 1 mM NMN): 95.5 °C
- ΔTm at 1000 µM (S29A PncC [1]; read-out: ΔTm): 10 °C
- Tm (+NMN) (Y56A PncC; 1 mM NMN): 83.6 °C
- Effect of NMN on Tm (Y56A PncC; 1.0 mM NMN): not affected
- Tm (+NMN) (K61Q PncC [2]; K61Q PncC, 1 mM NMN): 86.2 °C
- ΔTm at 1000 µM (K61Q PncC [2]; read-out: ΔTm): 18.7 °C
- Tm (+NMN) (R142A PncC; 1 mM NMN): 52.4 °C
- Effect of NMN on Tm (R142A PncC; 1.0 mM NMN): not affected
- Hill coefficient (nH) (S29A PncC [3]; S29A PncC, Trp fluorescence): 0.98± 0.1
- S29A PncC fluorescence quenching (%) vs buffer (S29A PncC [3]; nucleotide 0.185 µM): 0.48%
- S29A PncC fluorescence quenching (%) vs buffer (S29A PncC [3]; nucleotide 0.375 µM): 0.58%
- S29A PncC fluorescence quenching (%) vs buffer (S29A PncC [3]; nucleotide 0.75 µM): 2.58%
- S29A PncC fluorescence quenching (%) vs buffer (S29A PncC [3]; nucleotide 3 µM): 17.42%
- S29A PncC fluorescence quenching (%) vs buffer (S29A PncC [3]; nucleotide 6 µM): 17.55%
- S29A PncC fluorescence quenching (%) vs buffer (S29A PncC [3]; nucleotide 12 µM): 27.06%
- S29A PncC fluorescence quenching (%) vs buffer (S29A PncC [3]; nucleotide 24 µM): 37.52%
- S29A PncC fluorescence quenching (%) vs buffer (S29A PncC [3]; nucleotide 48 µM): 46.79%
- Hill coefficient (nH) (K61Q PncC [4]; K61Q PncC, Trp fluorescence): 1.3±0.2
- K61Q PncC fluorescence quenching (%) vs buffer (K61Q PncC [4]; nucleotide 0.185 µM): 1.09%
- K61Q PncC fluorescence quenching (%) vs buffer (K61Q PncC [4]; nucleotide 0.375 µM): 1.84%
- K61Q PncC fluorescence quenching (%) vs buffer (K61Q PncC [4]; nucleotide 0.75 µM): 3.19%
- K61Q PncC fluorescence quenching (%) vs buffer (K61Q PncC [4]; nucleotide 1.5 µM): 4.87%
- K61Q PncC fluorescence quenching (%) vs buffer (K61Q PncC [4]; nucleotide 3 µM): 6.26%
- K61Q PncC fluorescence quenching (%) vs buffer (K61Q PncC [4]; nucleotide 6 µM): 8.11%
- K61Q PncC fluorescence quenching (%) vs buffer (K61Q PncC [4]; nucleotide 12 µM): 12.12%
- K61Q PncC fluorescence quenching (%) vs buffer (K61Q PncC [4]; nucleotide 24 µM): 20.07%
- K61Q PncC fluorescence quenching (%) vs buffer (K61Q PncC [4]; nucleotide 48 µM): 38.03%
- quenching of fluorescence of GlnBP [5]: 4.3%
